Source: PMC8058733, “A pain killer without analgesic tolerance designed by co-targeting PSD-95-nNOS interaction and α2-containning GABAARs” (Theranostics, 2021)
Entries after “also recorded” stand apart in the source; their conditions may differ.

What was measured:
PSD-95-nNOS complex = target: T1, PSD-95-nNOS complex (Rattus norvegicus, UniProt P29476); assay: Co-IP of PSD-95-nNOS complex levels in the spinal dorsal horn after SNL; format: in vivo; conditions: SNL rats treated by ZL006-05
T1 construct: dorsal spinal cord tissues (L4 and L5) were lysed in 400 μl RIPA; from tissue; host or cells: rat dorsal spinal cord (L4 and L5), SNL model
T1 sequence (P29476 whole entry, one chain of several): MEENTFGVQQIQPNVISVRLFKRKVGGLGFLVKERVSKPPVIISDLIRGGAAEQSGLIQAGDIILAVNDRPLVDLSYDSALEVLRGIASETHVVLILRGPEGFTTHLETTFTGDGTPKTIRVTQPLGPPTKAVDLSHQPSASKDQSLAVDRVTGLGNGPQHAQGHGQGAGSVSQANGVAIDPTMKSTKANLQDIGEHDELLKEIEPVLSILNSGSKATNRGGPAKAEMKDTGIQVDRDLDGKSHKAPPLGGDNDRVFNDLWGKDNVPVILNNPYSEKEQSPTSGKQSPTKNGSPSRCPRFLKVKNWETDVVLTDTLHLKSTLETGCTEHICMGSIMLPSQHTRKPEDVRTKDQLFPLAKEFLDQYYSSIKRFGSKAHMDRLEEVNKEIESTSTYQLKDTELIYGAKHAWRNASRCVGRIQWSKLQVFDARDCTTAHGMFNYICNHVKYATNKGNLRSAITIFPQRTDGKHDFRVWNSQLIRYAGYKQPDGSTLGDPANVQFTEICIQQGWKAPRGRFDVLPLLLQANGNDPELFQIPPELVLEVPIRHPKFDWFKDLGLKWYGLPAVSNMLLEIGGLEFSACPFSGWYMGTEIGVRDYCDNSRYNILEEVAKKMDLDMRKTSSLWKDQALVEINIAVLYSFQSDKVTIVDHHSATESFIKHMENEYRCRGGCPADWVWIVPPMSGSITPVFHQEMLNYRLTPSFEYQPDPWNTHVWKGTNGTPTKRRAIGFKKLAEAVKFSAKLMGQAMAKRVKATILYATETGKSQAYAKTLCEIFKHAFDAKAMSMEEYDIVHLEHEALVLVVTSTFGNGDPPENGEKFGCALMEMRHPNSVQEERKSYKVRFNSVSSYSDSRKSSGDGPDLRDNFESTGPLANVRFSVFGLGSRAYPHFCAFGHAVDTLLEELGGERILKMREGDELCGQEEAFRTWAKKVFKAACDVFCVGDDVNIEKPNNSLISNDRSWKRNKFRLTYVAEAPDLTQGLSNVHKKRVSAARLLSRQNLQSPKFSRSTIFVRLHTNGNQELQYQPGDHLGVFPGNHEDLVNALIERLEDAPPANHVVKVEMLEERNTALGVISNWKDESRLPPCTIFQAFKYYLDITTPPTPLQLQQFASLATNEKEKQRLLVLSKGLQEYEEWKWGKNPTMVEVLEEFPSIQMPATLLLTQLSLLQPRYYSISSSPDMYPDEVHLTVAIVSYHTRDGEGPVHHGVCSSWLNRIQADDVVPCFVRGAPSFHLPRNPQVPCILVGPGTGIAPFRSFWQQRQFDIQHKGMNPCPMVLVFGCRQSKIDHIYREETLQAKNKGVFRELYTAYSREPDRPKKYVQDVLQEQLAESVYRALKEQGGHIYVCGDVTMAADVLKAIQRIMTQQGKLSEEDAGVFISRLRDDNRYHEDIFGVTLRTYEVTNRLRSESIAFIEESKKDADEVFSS

α1β2γ2 GABAARs = target: T2, α1β2γ2 GABAARs (Homo sapiens, UniProt P14867+P18507+P47870); assay: Potentiation of GABA-evoked currents, whole-cell patch-clamp in HEK293 cells transiently expressing recombinant GABAARs; format: cell-based; conditions: α1β2γ2
T2 construct: Shanghai Genechem Co.,Ltd (γ2 plasmid); host or cells: HEK293
T2 sequence (P14867 28-456): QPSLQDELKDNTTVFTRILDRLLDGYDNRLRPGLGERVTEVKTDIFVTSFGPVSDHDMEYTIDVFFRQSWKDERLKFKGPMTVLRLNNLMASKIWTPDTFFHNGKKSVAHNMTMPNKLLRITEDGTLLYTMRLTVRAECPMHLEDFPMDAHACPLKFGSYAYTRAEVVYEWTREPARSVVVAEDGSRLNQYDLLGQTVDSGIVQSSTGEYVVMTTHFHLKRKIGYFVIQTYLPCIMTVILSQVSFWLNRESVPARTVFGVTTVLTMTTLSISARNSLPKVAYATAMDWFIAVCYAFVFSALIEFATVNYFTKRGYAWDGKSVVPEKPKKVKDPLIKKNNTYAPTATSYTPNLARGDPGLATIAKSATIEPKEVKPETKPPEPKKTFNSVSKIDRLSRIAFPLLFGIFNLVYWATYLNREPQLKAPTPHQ
T2 sequence (P47870 25-512 limits assumed): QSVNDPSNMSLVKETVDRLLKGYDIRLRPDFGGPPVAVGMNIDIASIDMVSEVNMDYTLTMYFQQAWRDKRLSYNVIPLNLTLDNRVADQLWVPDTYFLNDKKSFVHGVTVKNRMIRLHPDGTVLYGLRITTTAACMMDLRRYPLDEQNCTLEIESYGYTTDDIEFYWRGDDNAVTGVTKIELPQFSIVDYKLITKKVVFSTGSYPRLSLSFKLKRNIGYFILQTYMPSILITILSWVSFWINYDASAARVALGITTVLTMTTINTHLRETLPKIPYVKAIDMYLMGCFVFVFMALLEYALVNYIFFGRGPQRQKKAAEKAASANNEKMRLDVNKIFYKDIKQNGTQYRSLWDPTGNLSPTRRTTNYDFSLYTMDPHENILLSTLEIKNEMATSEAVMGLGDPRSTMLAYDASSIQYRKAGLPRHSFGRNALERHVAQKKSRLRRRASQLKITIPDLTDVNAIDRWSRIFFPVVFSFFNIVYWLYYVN
T2 sequence (P18507 40-475): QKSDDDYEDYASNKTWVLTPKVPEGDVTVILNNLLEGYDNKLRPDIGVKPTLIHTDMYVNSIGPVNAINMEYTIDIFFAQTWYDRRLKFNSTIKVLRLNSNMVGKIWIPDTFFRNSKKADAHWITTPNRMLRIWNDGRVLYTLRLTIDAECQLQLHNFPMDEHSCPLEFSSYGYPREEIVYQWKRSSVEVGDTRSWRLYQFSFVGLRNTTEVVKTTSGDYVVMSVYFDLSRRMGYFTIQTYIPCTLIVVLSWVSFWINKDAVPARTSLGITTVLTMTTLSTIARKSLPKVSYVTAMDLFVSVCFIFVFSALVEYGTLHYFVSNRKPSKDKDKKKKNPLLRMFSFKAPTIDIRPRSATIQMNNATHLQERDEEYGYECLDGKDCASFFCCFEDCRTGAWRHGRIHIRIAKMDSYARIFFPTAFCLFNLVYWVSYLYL
Protocol: (§1) The affinities of drugs for α1, α2, α3 and α5 subunits were studied in the HEK293 cells (from FuHeng Biology, Shanghai, China) transiently expressing recombinant GABAARs (α1β2γ2, α2β3γ2, α3β3γ2 and α5β2γ2) as described previously. Briefly, the HEK293 cells were cultured in MEM medium supplemented with 10% FBS (fetal bovine serum, Gibico), 1% L-glutamine (Gibco) and 1% mycillin (Gibco). Before transfection, the cells were subcultured onto a 3.5cm dish at the ratio of 1:2. Then, the plasmids of α1/α2/α3/α5 (Origene), β2/β3 (Origene) and γ2 (Shanghai Genechem Co.,Ltd ) (5μg total DNA, ratio 1:1:2) were transfected using Fugene®HD transfection reagent (Promega). The γ2 subunit contained GFP from IRES (internal ribosomal entry site) and was used as a marker of the successful transfection. Cells were used for electrophysiology recording 18-36 hours after transfection.
(§2) Electrophysiology recordings from HEK293 cells were performed as described previously. Briefly, whole-cell patch-clamp recordings of GABA-evoked currents were made at 30 °C with the holding potential of -60 mV. The internal solution (solution in recording electrodes) contained (in mM): 120 CsCl, 10 EGTA, 10 HEPES, 4 MgCl2, 0.5 GTP, 2 ATP and pH was adjusted to 7.4 with CsOH and the external solution contained (in mM): 150 NaCl, 10 KCl, 2 CaCl2, 1 MgCl, 10 HEPES, 10 Glucose and pH was adjusted to 7.4 with NaOH. ACSF was bubbled continuously with carbogen (95%O2 and 5%CO2). For the recording of GABA-evoked currents, the slides were transferred to a recording chamber, which was perfused with ACSF at a rate of 4 ml/min. The cells were viewed under upright microscopy (Olympus), and GFP-positive cells were selected to record the currents. The interval time between each different dose of GABA was controlled, 3 to 5 minutes to avoid the desensitization of GABAARs.

α2β3γ2 GABAARs = target: T3, α2β3γ2 GABAARs (Homo sapiens, UniProt P18507+P28472+P47869); assay: as above; format: cell-based; conditions: α2β3γ2
T3 construct: Shanghai Genechem Co.,Ltd (γ2 plasmid); host or cells: HEK293
T3 sequence (P47869 29-451): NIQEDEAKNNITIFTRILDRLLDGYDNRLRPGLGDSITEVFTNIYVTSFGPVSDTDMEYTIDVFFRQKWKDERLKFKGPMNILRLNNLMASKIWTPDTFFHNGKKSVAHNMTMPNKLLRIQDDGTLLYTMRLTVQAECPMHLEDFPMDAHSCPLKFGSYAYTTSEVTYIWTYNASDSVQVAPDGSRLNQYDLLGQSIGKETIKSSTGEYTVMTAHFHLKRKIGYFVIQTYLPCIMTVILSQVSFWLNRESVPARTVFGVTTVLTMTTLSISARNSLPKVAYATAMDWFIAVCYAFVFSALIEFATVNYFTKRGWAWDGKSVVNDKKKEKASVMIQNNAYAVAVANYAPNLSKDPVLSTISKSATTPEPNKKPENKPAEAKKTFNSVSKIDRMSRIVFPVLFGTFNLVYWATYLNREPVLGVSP
T3 sequence (P28472 26-473): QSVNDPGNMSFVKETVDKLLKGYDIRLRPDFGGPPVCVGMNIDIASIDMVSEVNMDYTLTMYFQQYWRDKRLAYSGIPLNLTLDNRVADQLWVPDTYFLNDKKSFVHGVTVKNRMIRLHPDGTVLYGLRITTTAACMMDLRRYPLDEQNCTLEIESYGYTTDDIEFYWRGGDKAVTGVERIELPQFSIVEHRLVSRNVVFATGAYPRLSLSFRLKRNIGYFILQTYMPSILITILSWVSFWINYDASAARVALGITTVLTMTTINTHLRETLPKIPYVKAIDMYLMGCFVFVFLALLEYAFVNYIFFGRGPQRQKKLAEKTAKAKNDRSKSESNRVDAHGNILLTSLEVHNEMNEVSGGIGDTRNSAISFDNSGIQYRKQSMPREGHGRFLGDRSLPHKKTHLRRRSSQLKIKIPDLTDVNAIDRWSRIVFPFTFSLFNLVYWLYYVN
T3 sequence (P18507 40-475): as the sequence (P18507 40-475) above
Protocol: as §1, §2

α3β3γ2 GABAARs = target: T4, α3β3γ2 GABAARs (Homo sapiens, UniProt P18507+P28472+P34903); assay: as above; format: cell-based; conditions: α3β3γ2
T4 construct: Shanghai Genechem Co.,Ltd (γ2 plasmid); host or cells: HEK293
T4 sequence (P34903 29-492): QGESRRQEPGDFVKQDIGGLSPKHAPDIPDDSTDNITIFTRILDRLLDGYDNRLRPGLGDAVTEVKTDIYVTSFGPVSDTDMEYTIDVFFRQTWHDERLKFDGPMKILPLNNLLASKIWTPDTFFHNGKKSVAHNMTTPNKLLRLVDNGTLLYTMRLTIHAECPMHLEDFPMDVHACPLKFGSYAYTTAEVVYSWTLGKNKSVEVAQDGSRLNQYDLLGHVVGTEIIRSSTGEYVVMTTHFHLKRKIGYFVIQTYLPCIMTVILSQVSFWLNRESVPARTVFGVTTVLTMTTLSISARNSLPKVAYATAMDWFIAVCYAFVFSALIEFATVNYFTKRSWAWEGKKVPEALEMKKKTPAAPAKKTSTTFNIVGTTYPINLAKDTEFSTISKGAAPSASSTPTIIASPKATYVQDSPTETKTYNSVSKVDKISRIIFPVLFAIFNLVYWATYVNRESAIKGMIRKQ
T4 sequence (P28472 26-473): as the sequence (P28472 26-473) above
T4 sequence (P18507 40-475): as the sequence (P18507 40-475) above
Protocol: as §1, §2

[1] = tested on: SNL-induced thermal hyperalgesia; assay: SNL-induced thermal hyperalgesia, paw withdrawal latency; format: in vivo, mice; conditions: mice, ZL006-05 60 mg/kg, i.g., 0-24 h
Protocol: Neuropathic pain was induced by segmental spinal nerve ligation (SNL). Animals were anesthetized with isoflurane. After the loss of righting reflex, the animal was fixed in the prone position. The SNL model was prepared as described previously: a median skin incision with about 3-5 cm length in L4-S2 level of the mouse back was made, the muscles next to the vertebrae till the sixth lumbar protruding were separated, the L5/L6 joint protruding on the right side was exposed and excised, and L6 processus transversus was partially split so that the L4-L6 spinal nerves on the right side were exposed. L5 nerve was gently isolated and tightly ligated with 5-0 silk thread. […]
Paw withdrawal latency (PWL) response to thermal stimulus was assessed through the Hargreaves test. […] To record the PWL in response to thermal stimulus, each animal was measured five times with a 5-min interval, and the mean value was recorded after excluding maximal and minimum values. […]
(A) Time course of SNL-induced thermal hyperalgesia after treating with ZL006-05 (60 mg/kg, i.g.) in mice. Paw withdrawal latency response to thermal stimulation was detected at 0, 1, 2, 4, 6, 8, 10, 12 and 24 h after drug administration. ( B) Areas under the curve of paw withdrawal latency 0-24 h after treatment calculated from ( A) (F (1,16) = 43.07, ***p < 0.001, two-tailed t-test, n = 9). […]

## CC1(C)C2CCC1(C)C(OC(=O)c1ccc(NCc3cc(Cl)cc(Cl)c3O)cc1O)C2 (centres unmarked) [ZL006-05]
PSD-95-nNOS complex
  PSD-95-nNOS complex level in the SDH: abolished the SNL-induced increase in PSD-95-nNOS complex in the SDH
α1β2γ2 GABAARs
  Effect on GABA-evoked currents of α1-containing GABAAR (in words): does not potentiate α1GABAAR
α2β3γ2 GABAARs
  Effect on α2-containing GABAAR (in words): very high affinity to α2-containing GABAAR; also recorded: very high efficacy and potency on α2GABAARs
α3β3γ2 GABAARs
  Effect on α3GABAAR (in words): low efficacy on α3GABAAR
[1]
  Effect on SNL-induced thermal hyperalgesia: reduced SNL-induced mechanical hyperalgesia and thermal pain
